Assay results as given in patent publication US8563730B2, “Pyrazole and fused pyrazole glucokinase activators” (Takeda San Diego, Inc., priority 2008, dated 2013).
Like-named read-outs stand apart in the source and are kept apart here. One block for each compound: values may come before it.

Target: T1, GK (glucokinase, residues 12-465) (Homo sapiens, UniProt P35557)
T1 construct: I.D. No. 1 corresponds to residues 12-465 of glucokinase; made in house; host or cells: DH10b-T1r E. coli
T1 sequence (P35557 with tags, fused parts or gaps isoform P35557-2): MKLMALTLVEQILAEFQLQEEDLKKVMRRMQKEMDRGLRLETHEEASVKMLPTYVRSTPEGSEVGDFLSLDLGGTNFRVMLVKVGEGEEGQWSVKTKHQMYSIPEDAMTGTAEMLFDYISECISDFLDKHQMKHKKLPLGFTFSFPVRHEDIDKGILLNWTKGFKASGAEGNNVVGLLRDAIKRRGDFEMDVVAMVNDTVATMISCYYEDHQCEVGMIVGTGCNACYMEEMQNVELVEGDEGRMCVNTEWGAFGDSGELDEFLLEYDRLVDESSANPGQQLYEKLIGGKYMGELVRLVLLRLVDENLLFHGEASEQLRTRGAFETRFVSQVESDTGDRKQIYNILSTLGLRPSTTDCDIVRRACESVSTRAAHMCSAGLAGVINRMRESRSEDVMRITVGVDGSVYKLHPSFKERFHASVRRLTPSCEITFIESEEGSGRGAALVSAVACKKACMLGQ
Assay: enzymatic glucokinase activity assay (ATP consumption, KinaseGlo luminescence)
Assay type: biochemical
Conditions: 5 μM ATP, 5 mM Glucose, reported as bins; for EC50: Kact = concentration that displays 50% of the maximal increase in GK activity, 60 min, room temperature, read-out: pKact
Description: The activity of compounds as glucokinase activators may be assayed in vitro, in vivo or in a cell line. Provided below is an enzymatic glucokinase activity assay.
Purified glucokinase may be obtained as follows. […] SEQ.
The expression of recombinant glucokinase protein may be carried out by transformation and growth of DH10b-T1r E. coli cells incorporating the (pFLAG-CTC) plasmid in LB media. Protein expression can be induced in this system by the addition of IPTG to the culture medium.
Recombinant protein may be isolated from cellular extracts by passage over Sepharose Q Fast Flow resin (Pharmacia). This partially purified GK extract may then be further purified by a second passage over Poros HQ10 (Applied Biosystems). The purity of GK may be determined on denaturing SDS-PAGE gel. Purified GK may then be concentrated to a final concentration of 20.0 mg/ml. After flash freezing in liquid nitrogen, the proteins can be stored at −78° C. in a buffer containing 25 mM TRIS-HCl pH 7.6, 50 mM NaCl, and 0.5 mM TCEP.
The activation properties of compounds for GK may be determined using a black 384-well-plate format under the following reaction conditions: 25 mM Hepes pH 7.2, 25 mM NaCl, 10 mM MgCl2, 0.01% Brij35, 1 mM DTT, 5 μM ATP, 5 mM Glucose 2% DMSO. The amount of ATP consumed may be determined quantitatively by addition of equal volume of luciferase reagent (luciferase+beetle luciferin—KinaseGlo Luminescent Kinase Assay kit from Promega). The luminescence intensity may be measured by using the Analyst HT from LJL Biosystems.
The reaction mixture may then be incubated at room temperature for 60 min, and quenched and developed by addition of 10 μL of luciferase reagent. Luminescence intensities of the resulting reaction mixtures may be measured after a 10 min incubation at room temperature. The luminescence intensity may be measured by using the Analyst HT from LJL Biosystems.
pKact and % ACTmax values may be calculated by non-linear curve fitting of the compound concentrations and luminescence intensities to a standard inhibition/activation equation.

[1] = read-out: % ACTmax, calculated maximal gain in GK enzyme activity at a saturating concentration of the compound
[2] = calculated maximal gain in GK enzyme activity at a saturating concentration of the compound, read-out: % ACTmax

- EC50: ≤ 0.316 µM
- Emax [2]: 106 to 110%
Compound: NC(=O)c1ccc(NC(=O)C(CC2CCOCC2)n2ncc3c(S(=O)(=O)C4CC4)cc(F)cc32)nc1 (centres unmarked) [Compound 117, 6-(2-(4-(cycloproypylsulfonyl)-6-fluoro-1H-indazol-1-yl)-3-(tetrahydro-2H-pyran-4-yl)propanamido)nicotinamide]

- EC50: ≥ 15.8 µM
- Emax [2]: ≤ 90%
Compound: O=C(Nc1ncc(F)cc1F)C(CC1CCOCC1)n1ncc2c(S(=O)(=O)C3CC3)cccc21 (centres unmarked) [Compound 88, 2-(4-(cyclopropylsulfonyl)-1H-indazol-1-yl)-N-(3,5-difluoropyridin-2-yl)-3-(tetrahydro-2H-pyran-4-yl)propanamide]

- EC50: 1.58 to 3.16 µM
- Emax [2]: 90 to 100%
Compound: Cn1ccc(NC(=O)C(CC2CCOCC2)n2ncc3c(S(=O)(=O)C4CC4)cc(F)cc32)n1 (centres unmarked) [Compound 104, 2-(4-(cyclopropylsulfonyl)-6-fluoro-1H-indazol-1-yl)-N-(1-methyl-1H-pyrazol-3-yl)-3-(tetrahydro-2H-pyran-4-yl)propanamide]

- EC50: 3.98 to 12.6 µM
- Emax [2]: ≤ 90%
Compound: O=C(Nc1ncc(F)s1)[C@@H](CC1CCOCC1)n1ncc2c(S(=O)(=O)C3CC3)cc(Cl)cc21 [Compound 145, (R)-2-(6-chloro-4-(cyclopropylsulfonyl)-1H-indazol-1-yl)-N-(5-fluorothiazol-2-yl)-3-(tetrahydro-2H-pyran-4-yl)propanamide]

- EC50: ≤ 0.316 µM
- Emax [2]: 101 to 105%
Compound: O=C(Nc1ncc(F)s1)C(CC1CCOCC1)n1ncc2c(S(=O)(=O)C3CC3)cccc21 (centres unmarked) [Compound 66, 2-(4-(cyclopropylsulfonyl)-1H-indazol-1-yl)-N-(5-fluorothiazol-2-yl)-3-(tetrahydro-2H-pyran-4-yl)propanamide]

- EC50: 0.398 to 1.26 µM
- Emax [2]: 90 to 100%
Compound: Cn1ccc(NC(=O)C(CC2CCOCC2)n2ncc3c(S(=O)(=O)C4CC4)cc(Cl)cc32)n1 (centres unmarked) [Compound 101, 2-(6-chloro-4-(cyclopropylsulfonyl)-1H-indazol-1-yl)-N-(1-methyl-1H-pyrazol-3-yl)-3-(tetrahydro-2H-pyran-4-yl)propanamide]

- EC50: ≤ 0.316 µM
- Emax [2]: 101 to 105%
Compound: O=C(Nc1ncc(F)s1)C(CC1CCOCC1)n1ncc2c(S(=O)(=O)C3CC3)cc(O)cc21 (centres unmarked) [Compound 130, 2-(4-(cyclopropylsulfonyl)-6-hydroxy-1H-indazol-1-yl)-N-(5-fluorothiazol-2-yl)-3-(tetrahydro-2H-pyran-4-yl)propanamide]

More lines, now with the values behind:

Compound: NC(=O)c1ccc(NC(=O)[C@@H](CC2CCOCC2)n2ncc3c(S(=O)(=O)C4CC4)cccc32)nc1 [Compound 108, (R)-6-(2-(4-(cyclopropylsulfonyl)-1H-indazol-1-yl)-3-(tetrahydro-2H-pyran-4-yl)propanamido)nicotinamide]
- EC50: 3.98 to 12.6 µM
- Emax [1]: ≥ 111%

Compound: O=C(Nc1cccc(F)n1)C(CC1CCOCC1)n1ncc2c(S(=O)(=O)C3CC3)cccc21 (centres unmarked) [Compound 147, 2-(4-(cyclopropylsulfonyl)-1H-indazol-1-yl)-N-(6-fluoropyridin-2-yl)-3-(tetrahydro-2H-pyran-4-yl)propanamide]
- EC50: 1.58 to 3.16 µM
- Emax [2]: ≥ 111%

Compound: O=C1CC[C@H](C[C@@H](C(=O)Nc2ncc(F)s2)n2ncc3c(S(=O)(=O)C4CC4)cc(Cl)cc32)C1 [Compound 79, (S)-2-(6-chloro-4-(cyclopropylsulfonyl)-1H-indazol-1-yl)-N-(5-fluorothiazol-2-yl)-3-((R)-3-oxocyclopentyl)propanamide]
- EC50: ≤ 0.316 µM
- Emax [2]: 90 to 100%

Compound: O=C(Nc1ncc(F)s1)C(CC1CCOCC1)n1ncc2c(S(=O)(=O)C3CC3)ccnc21 (centres unmarked) [Compound 127, 2-(4-(cyclopropylsulfonyl)-1H-pyrazolo[3,4-b]pyridin-1-yl)-N-(5-fluorothiazol-2-yl)-3-(tetrahydro-2H-pyran-4-yl)propanamide]
- EC50: ≤ 0.316 µM
- Emax [2]: 101 to 105%

Compound: O=C(Nc1ncc(F)s1)C(CC1CCOCC1)n1ncc2c(S(=O)(=O)C3CC3)cc(OC(F)F)cc21 (centres unmarked) [Compound 143, 2-(4-(cyclopropylsulfonyl)-6-(difluoromethoxy)-1H-indazol-1-yl)-N-(5-fluorothiazol-2-yl)-3-(tetrahydro-2H-pyran-4-yl)propanamide]
- EC50: ≤ 0.316 µM
- Emax [2]: ≤ 90%

Compound: O=C(Nc1ncc(F)s1)[C@@H](CC1CCOCC1)n1cc(S(=O)(=O)C2CCCC2)cn1 [Compound 43, (R)-2-(4-(cyclopentylsulfonyl)-1H-pyrazol-1-yl)-N-(5-fluorothiazol-2-yl)-3-(tetrahydro-2H-pyran-4-yl)propanamide]
- EC50: ≥ 15.8 µM
- Emax [2]: ≤ 90%

Compound: O=C(Nc1cnccn1)C(CC1CCOCC1)n1ncc2c(S(=O)(=O)C3CC3)c(F)ccc21 (centres unmarked) [Compound 154, 2-(4-(cyclopropylsulfonyl)-5-fluoro-1H-indazol-1-yl)-N-(pyrazin-2-yl)-3-(tetrahydro-2H-pyran-4-yl)propanamide]
- EC50: ≤ 0.316 µM
- Emax [2]: 106 to 110%

Compound: O=C(Nc1ncc(Cl)s1)[C@@H](CC1CCOCC1)n1cc(S(=O)(=O)C2CCCC2)cn1 [Compound 58, (R)-N-(5-chlorothiazol-2-yl)-2-(4-(cyclopentylsulfonyl)-1H-pyrazol-1-yl)-3-(tetrahydro-2H-pyran-4-yl)propanamide]
- EC50: ≥ 15.8 µM
- Emax [2]: 101 to 105%

Compound: O=C(Nc1ncc(F)s1)[C@@H](CC1CCOCC1)n1ncc2c(S(=O)(=O)C3CC3)cccc21 [Compound 68, (R)-2-(4-(cyclopropylsulfonyl)-1H-indazol-1-yl)-N-(5-fluorothiazol-2-yl)-3-(tetrahydro-2H-pyran-4-yl)propanamide]
- EC50: 3.98 to 12.6 µM
- Emax [2]: 101 to 105%

Compound: Cn1ccc(NC(=O)[C@@H](CC2CCOCC2)n2ncc3c(S(=O)(=O)C4CC4)cccc32)n1 [Compound 118]
- EC50: ≥ 15.8 µM
- Emax [1]: ≤ 90%

Compound: O=C(Nc1cnccn1)C(CC1CCCC1)n1ncc2c(S(=O)(=O)C3CC3)cccc21 (centres unmarked) [Compound 61, 3-cyclopentyl-2-(4-(cyclopropylsulfonyl)-1H-indazol-1-yl)-N-(pyrazin-2-yl)propanamide]
- EC50: 0.398 to 1.26 µM
- Emax [2]: 90 to 100%

Compound: O=C(Nc1ccc(Cl)cn1)C(CC1CCOCC1)n1cc(S(=O)(=O)C2CC2)cn1 (centres unmarked) [Compound 45, N-(5-chloropyridin-2-yl)-2-(4-(cyclopropylsulfonyl)-1H-pyrazol-1-yl)-3-(tetrahydro-2H-pyran-4-yl)propanamide]
- EC50: 3.98 to 12.6 µM
- Emax [2]: ≥ 111%

Compound: O=C(Nc1ncc(Cl)s1)C(CC1CCOCC1)n1ncc2c(S(=O)(=O)C3CC3)cccc21 (centres unmarked) [Compound 59, N-(5-chlorothiazol-2-yl)-2-(4-(cyclopropylsulfonyl)-1H-indazol-1-yl)-3-(tetrahydro-2H-pyran-4-yl)propanamide]
- EC50: ≤ 0.316 µM
- Emax [2]: 106 to 110%

Compound: N#Cc1cnc(NC(=O)[C@H](CC2CCOCC2)n2ncc3c(S(=O)(=O)C4CC4)cccc32)s1 [Compound 136, (S)-N-(5-cyanothiazol-2-yl)-2-(4-(cyclopropylsulfonyl)-1H-indazol-1-yl)-3-(tetrahydro-2H-pyran-4-yl)propanamide]
- EC50: 0.398 to 1.26 µM
- Emax [2]: ≥ 111%

Compound: O=C1CC[C@H](CC(C(=O)Nc2cnccn2)n2ncc3c(S(=O)(=O)C4CC4)cccc32)C1 (stereo partly drawn) [Compound 71, 2-(4-(cyclopropylsulfonyl)-1H-indazol-1-yl)-3-((R)-3-oxocyclopentyl)-N-(pyrazin-2-yl)propanamide]
- EC50: 1.58 to 3.16 µM
- Emax [2]: ≤ 90%
